Source: patent US12370149B1, “Transdermal cannabidiol delivery device” (ZHI Technologies, Inc., priority 2024, dated 2025)

Assay: Solubility of CBD in mineral oil
Format: physicochemical
Source text: Cannabidiol content. As discussed above, the matrices and TTDs of the present disclosure are advantageously formulated with a “saturated-plus-excess” concentration of CBD. The solubility of CBD in mineral oil (and by extension a PIB/mineral oil blend since PIB and mineral oil have the same solubility) is 4% (w/w). The amount of CBD in the matrix should be at least twofold, e.g., at least threefold, at least fourfold, or at least fivefold more CBD than the maximum concentration of CBD that dissolves in the plasticizer (e.g., mineral oil). The amount of CBD in the matrix can be any amount from about 10% (w/w) to about 30% (w/w) of the matrix, for example about 12.0% (w/w), about 12.5% (w/w), about 13.0% (w/w), about 13.5% (w/w), about 14.0% (w/w), about 14.5% (w/w), about 15.0% (w/w), about 15.5% (w/w), about 16.0% (w/w), about 16.5% (w/w), about 17.0% (w/w), about 17.5% (w/w), about 18.0% (w/w), about 18.5% (w/w), about 19.0% (w/w), about 19.5% (w/w), about 20.0% (w/w), or about 20.5% (w/w) of the matrix. The amount of cannabinoids other than CBD should be less than about 10% (w/w), for example less than about 1% (w/w).

With `C=C(C)[C@@H]1CCC(C)=C[C@H]1c1c(O)cc(CCCCC)cc1O` [CBD, cannabidiol] the “solubility of CBD in mineral oil (and by extension a PIB/mineral oil blend)” value was 4 % (w/w).
